pKi: −log10 of the molar value.
Columns and labels:
[1] = molecular target: Kappa-type opioid receptor (Homo sapiens, UniProt P41145); experiment: (§1) Radioligand Dose-Displacement Binding Assay: Radioligand dose-displacement binding assays for u-opioid receptors used 0.3 nM [3H]-diprenorphine (Perkin Elmer, Shelton, Conn.), with […] in a final volume of 500 ul binding buffer (10 mM MgCl2, 1 mM EDTA, 5% DMSO, 50 mM HEPES, pH 7.4). Reactions were carried out in the absence or presence of increasing concentrations of unlabeled naloxone. All reactions were conducted in 96-deep well polypropylene plates for 2 hours at room temperature. Binding reactions were terminated by rapid filtration onto 96-well Unifilter GF/C filter plates (Perkin Elmer, Shelton, Conn.), presoaked in 0.5% polyethylenimine using a 96-well tissue harvester (Perkin Elmer, Shelton, Conn.) followed by performing three filtration washes with 500 ul of ice-cold binding buffer. Filter plates were subsequently dried at 50 C. for 2-3 hours. BetaScint scintillation cocktail (Perkin Elmer, Shelton, Conn.) was added (50 ul/well), and plates were counted using a Packard Top-Counter.
Chain of Kappa-type opioid receptor (P41145 whole entry): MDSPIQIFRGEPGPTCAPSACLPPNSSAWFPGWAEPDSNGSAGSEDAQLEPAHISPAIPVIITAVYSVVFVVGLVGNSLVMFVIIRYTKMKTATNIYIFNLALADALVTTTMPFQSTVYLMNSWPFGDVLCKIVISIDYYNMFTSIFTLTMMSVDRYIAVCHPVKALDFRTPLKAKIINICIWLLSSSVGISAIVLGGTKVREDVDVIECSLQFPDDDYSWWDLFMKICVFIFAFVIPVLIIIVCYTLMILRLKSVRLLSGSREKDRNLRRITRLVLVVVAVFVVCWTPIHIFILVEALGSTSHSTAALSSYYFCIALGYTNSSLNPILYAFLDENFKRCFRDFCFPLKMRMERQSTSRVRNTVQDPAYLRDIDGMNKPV

[2] = molecular target: Mu-type opioid receptor (Homo sapiens, UniProt P35372); experiment: as §1
Chain of Mu-type opioid receptor (P35372 whole entry): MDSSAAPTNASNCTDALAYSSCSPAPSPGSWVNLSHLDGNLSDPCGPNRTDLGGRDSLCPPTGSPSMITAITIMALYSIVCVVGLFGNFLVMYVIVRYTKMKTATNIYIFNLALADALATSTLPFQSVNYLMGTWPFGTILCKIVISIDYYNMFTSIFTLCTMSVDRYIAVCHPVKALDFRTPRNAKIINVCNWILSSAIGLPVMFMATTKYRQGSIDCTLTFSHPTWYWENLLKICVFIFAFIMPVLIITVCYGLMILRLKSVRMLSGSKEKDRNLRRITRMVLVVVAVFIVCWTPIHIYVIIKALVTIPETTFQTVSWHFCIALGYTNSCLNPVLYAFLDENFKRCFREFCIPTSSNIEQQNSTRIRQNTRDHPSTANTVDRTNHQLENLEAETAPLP

COc1ccc(CN2C[C@H]3[C@H]4Cc5ccc(OC)cc5[C@@]3(CCN4CC3CC3)CC2=O)cc1
pKi [1]: 6.39

COc1ccc(CN2C=C3[C@H]4Cc5ccc(OC)cc5[C@@]3(CCN4CC3CC3)CC2=O)cc1
pKi [2]: 6.66 | pKi [1]: 7.88
